Tests used:
Papayas ‘Golden’ [1] = assay: Example 2 (yellow stage): pulp firmness, internal; assay type: in vivo, papaya; conditions: 500 ppb of MCP
Method: A similar test to Example 1 but papayas are tested during their yellow stage. Papayas ‘Golden’ were harvested in Linhares—Espírito Santo—Brazil. The fruits were packed in MAP Bags and put in cardboard boxes.
The fruits were first left at room temperature during 3 days to reach yellow maturity stage.
After that the appropriate weight of papayas was placed in each bag after harvest. Bags were placed in the same cardboard boxes used to export the fruits. Papayas then were cold stored at (11° C.) at the Laboratory.
(§1) The Test Protocol that was used was as follows. 18 MAP bags were packed. Each bag held approximately 3.8 kg (8.4 lb) of papayas. One such bag was packed in each cardboard box. Total weight of papayas in MAP bags was approximately 68 kg. Approximately 68 kg of papayas were placed into cardboard boxes identical to those used for the MAP bags.
(§2) The MAP-packaged papayas were packaged as follows: Nine fruits, approximately 3.8 kg were carefully placed into microperforated bags, and the bags were sealed by twisting the open side of the bag, folding down the twisted end, and placing a rubber band around the twisted and folded end of the bag.
All papayas were kept at cold temperature (11° C.) during 26 days and after that the fruits (packed in MAP bags or not) were put in room temperature (22° C.) during 8 days.
After the 3 days for maturation at room temperature, when the papayas had around 5 lbf of average firmness, each treatment set was marked, placed in a hermetical chamber at cold temperature (11° C.). All chambers were of equal size and packed the same way. Treatment was for 12 hr. In the chambers for the 2 “MCP” treatment groups, at the beginning of the treatment period, SmartFresh™ were placed in the chamber. The amount of SmartFresh™ was chosen to achieve the indicated concentration of 1-methylcyclopropene in the atmosphere of the chamber.
(§3) Evaluation for skin color and firmness was as follows. Day “zero” was the day the papayas were removed from the chamber and placed in storage.
For the Pulp Firmness evaluation two measurements were done, one for External Firmness and another for Internal Firmness. For External Firmness, the papayas had the skin removed with a peeler and the pulp firmness was measured with a Firmness Texture Analyzer (FTA) with a probe of 8 mm. For Internal Firmness, the papayas were cut transversally and a measurement close to the center of the fruit was taken with the FTA.

Papayas ‘Golden’ [2] = assay: Example 3: papaya skin color rating, MAP bags with different perforations; assay type: in vivo; conditions: for Skin color ratings: 100 ppb of MCP, scale 1 green to 5 yellow
Method: (§4) Papayas ‘Golden’ were harvested in Linhares—Espírito Santo—Brazil. The fruits were packed in MAP Bags and put in cardboard boxes.
(§5) The appropriate weight of papayas was placed in each bag after harvest. Bags were placed in the same cardboard boxes used to export the fruits. Papayas then were cold stored at (11° C.) at the Laboratory.
as §1, with “follows. 40” for “follows. 18”, “One of” for “One”, “approximately 152” for “approximately 68”, “Approximately 8” for “Approximately 68”
as §2, with “kg,” for “kg”, “MAP-bags,” for “bags,”
(§6) All papayas were kept at cold temperature (11° C.) during 14 days and after that the fruits (packed in MAP bags or not) were put in room temperature (24° C.) during 5 days.
(§7) One day after harvest, when the papayas had around 30 lbf of average firmness, each treatment set was marked and placed in a hermetical chamber at cold temperature (11° C.). All chambers were of equal size and packed the same way. Treatment was for 12 hours.
(§8) In the chambers, SmartFresh™ was placed at the beginning of the treatment period for the 5 “MCP” treatment groups. The amount of SmartFresh™ was chosen to achieve the indicated concentration of 1-methylcyclopropene in the atmosphere of the chamber.
as §3
The Papaya Skin Color was rated with the following scale: 1: green; 2: approximately 25%; 3: approximately 50% colored; 4: approximately 75% colored; 5: yellow.

Papayas ‘Golden’ [3] = assay: Example 3: pulp firmness, external, MAP bags with different perforations; assay type: in vivo, papaya; conditions: for External Firmness - Difference with Untreated Fruits (Δ) / Pulp Firmness - External: 100 ppb of MCP; for External Firmness - Difference with Untreated Fruits (Δ): 5 Days @ 24° C.
Method: as §4, §5
as §1, with “follows. 40” for “follows. 18”, “One of” for “One”, “approximately 152” for “approximately 68”, “Approximately 8” for “Approximately 68”
as §2, with “kg,” for “kg”, “MAP-bags,” for “bags,”
as §6, §7, §8, §3
For External Firmness, the papayas had the skin removed with a peeler and the pulp firmness was measured with a Firmness Texture Analyzer (FTA) with a probe of 8 mm.

[4] = 24 Perf. MAP bag, 14 days at 11° C. then 3 days @ 24° C.
[5] = 24 Perf. MAP bag, 14 days at 11° C. then 5 days @ 24° C.
[6] = 48 Perf. MAP bag, 14 days at 11° C. then 3 days @ 24° C.
[7] = 48 Perf. MAP bag, 14 days at 11° C. then 5 days @ 24° C.
[8] = 90 Perf. MAP bag, 14 days at 11° C. then 3 days @ 24° C.
[9] = 90 Perf. MAP bag, 14 days at 11° C. then 5 days @ 24° C.
[10] = 180 Perf. MAP bag, 14 days at 11° C. then 3 days @ 24° C.
[11] = 180 Perf. MAP bag, 14 days at 11° C. then 5 days @ 24° C.
[12] = No Bag, 14 days at 11° C. then 3 days @ 24° C.
[13] = No Bag, 14 days at 11° C. then 5 days @ 24° C.

SMILES: CC1=CC1 [MCP, 1-methylcyclopropene]
- Pulp Firmness - Internal (Papayas ‘Golden’ [1]; MAP bag, 26 days at 11° C. then 0 days @ 22° C.): 1.20 lbf
- Pulp Firmness - Internal (Papayas ‘Golden’ [1]; MAP bag, 26 days at 11° C. then 4 days @ 22° C.): 0.92 lbf
- Pulp Firmness - Internal (Papayas ‘Golden’ [1]; MAP bag, 26 days at 11° C. then 8 days @ 22° C.): 0.88 lbf
- Pulp Firmness - Internal (Papayas ‘Golden’ [1]; No Bag, 26 days at 11° C. then 0 days @ 22° C.): 1.21 lbf
- Pulp Firmness - Internal (Papayas ‘Golden’ [1]; No Bag, 26 days at 11° C. then 4 days @ 22° C.): 1.55 lbf
- Pulp Firmness - Internal (Papayas ‘Golden’ [1]; No Bag, 26 days at 11° C. then 8 days @ 22° C.): 0.95 lbf
- papayas color, in words (Papayas ‘Golden’ [2]; 1-MCP alone (no MAP)): did not hold the papayas color
- Skin color ratings (Papayas ‘Golden’ [2]; 24 Perf. MAP bag, 14 days at 11° C. then 0 days @ 24° C.): 1.60
- Skin color ratings (Papayas ‘Golden’ [2]; [4]): 2.04
- Skin color ratings (Papayas ‘Golden’ [2]; [5]): 3.75
- Skin color ratings (Papayas ‘Golden’ [2]; 48 Perf. MAP bag, 14 days at 11° C. then 0 days @ 24° C.): 1.96
- Skin color ratings (Papayas ‘Golden’ [2]; [6]): 3.02
- Skin color ratings (Papayas ‘Golden’ [2]; [7]): 4.52
- Skin color ratings (Papayas ‘Golden’ [2]; 90 Perf. MAP bag, 14 days at 11° C. then 0 days @ 24° C.): 1.71
- Skin color ratings (Papayas ‘Golden’ [2]; [8]): 3.18
- Skin color ratings (Papayas ‘Golden’ [2]; [9]): 4.36
- Skin color ratings (Papayas ‘Golden’ [2]; 180 Perf. MAP bag, 14 days at 11° C. then 0 days @ 24° C.): 1.73
- Skin color ratings (Papayas ‘Golden’ [2]; [10]): 4.13
- Skin color ratings (Papayas ‘Golden’ [2]; [11]): 4.84
- Skin color ratings (Papayas ‘Golden’ [2]; No Bag, 14 days at 11° C. then 0 days @ 24° C.): 1.82
- Skin color ratings (Papayas ‘Golden’ [2]; [12]): 4.11
- Skin color ratings (Papayas ‘Golden’ [2]; [13]): 4.96
- skin coloring delay and external pulp firmness retention, in words (Papayas ‘Golden’ [2]; combination of 1-MCP and MAP bag versus any treatment alone): synergistic effect
- external firmness during shelf-life, in words (Papayas ‘Golden’ [3]; 1-MCP alone (no MAP)): not high enough external firmness
- External Firmness - Difference with Untreated Fruits (Δ) (Papayas ‘Golden’ [3]; 24 Perf. MAP bag): 2.59 lbf
- Pulp Firmness - External (Papayas ‘Golden’ [3]; [4]): 5.23 lbf
- Pulp Firmness - External (Papayas ‘Golden’ [3]; [5]): 4.12 lbf
- External Firmness - Difference with Untreated Fruits (Δ) (Papayas ‘Golden’ [3]; 48 Perf. MAP bag): 0.89 lbf
- Pulp Firmness - External (Papayas ‘Golden’ [3]; [6]): 3.68 lbf
- Pulp Firmness - External (Papayas ‘Golden’ [3]; [7]): 2.42 lbf
- External Firmness - Difference with Untreated Fruits (Δ) (Papayas ‘Golden’ [3]; 90 Perf. MAP bag): 1.75 lbf
- Pulp Firmness - External (Papayas ‘Golden’ [3]; [8]): 3.94 lbf
- Pulp Firmness - External (Papayas ‘Golden’ [3]; [9]): 3.28 lbf
- External Firmness - Difference with Untreated Fruits (Δ) (Papayas ‘Golden’ [3]; 180 Perf. MAP bag): 1.27 lbf
- Pulp Firmness - External (Papayas ‘Golden’ [3]; [10]): 3.64 lbf
- Pulp Firmness - External (Papayas ‘Golden’ [3]; [11]): 2.80 lbf
- External Firmness - Difference with Untreated Fruits (Δ) (Papayas ‘Golden’ [3]; No Bag): 1.09 lbf
- Pulp Firmness - External (Papayas ‘Golden’ [3]; [12]): 6.23 lbf
- Pulp Firmness - External (Papayas ‘Golden’ [3]; [13]): 2.62 lbf

— patent US20190246658A1, “METHODS OF HANDLING PAPAYA” (AGROFRESH INC., priority 2013, published 2019)
